{"source": "PubChem BioAssay AID749", "about": "(The Scripps Research Institute Molecular Screening Center, 2007)", "note": "Active and inactive are the calls of the source.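 Rule for the calls: active = IC50 at or below 10 micromolar; inactive = IC50 above 10 micromolar.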"}
{"target": "5-hydroxytryptamine receptor 1E (Homo sapiens) (UniProt P28566)", "sequence (P28566 whole entry, looked up)": "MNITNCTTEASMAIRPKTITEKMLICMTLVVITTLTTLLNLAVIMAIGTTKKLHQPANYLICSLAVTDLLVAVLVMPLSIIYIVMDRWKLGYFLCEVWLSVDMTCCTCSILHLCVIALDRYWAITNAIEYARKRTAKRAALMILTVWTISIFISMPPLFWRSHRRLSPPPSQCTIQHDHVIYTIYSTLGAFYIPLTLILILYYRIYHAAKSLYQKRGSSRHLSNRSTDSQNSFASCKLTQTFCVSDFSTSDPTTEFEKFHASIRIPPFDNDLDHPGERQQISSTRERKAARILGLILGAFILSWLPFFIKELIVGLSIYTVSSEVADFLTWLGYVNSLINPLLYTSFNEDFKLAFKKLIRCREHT", "test": "5-HT1E receptor antagonist potency, dose response, cell-based (AID 749)", "conditions": "CHO 5-HT1E Ga15 NFAT-BLA reporter, FRET"}
{"smiles": "CCOc1ccc(C2=Nn3c(nnc3-c3ccccc3OC)SC2)cc1", "IC50": "> 50 µM (inactive)"}
{"smiles": "CS(=O)(=O)c1nc(-c2cccs2)cc(C(F)(F)F)n1", "IC50": "1.93 µM"}
{"smiles": "CCC(NC(=O)Nc1nnc(C(F)(F)F)s1)(C(F)(F)F)C(F)(F)F", "IC50": "inactive"}
{"smiles": "COC(=O)Nc1nc2ccc(Sc3ccccc3)cc2[nH]1", "IC50": "> 50 µM (inactive)"}
{"smiles": "CCn1c(=O)c(C(=O)Nc2nc3ccccc3[nH]2)c(O)c2ccccc21", "IC50": "inactive"}
{"smiles": "COc1cc2c(cc1OC)C1=C(C#N)CC/C(=N\\S(=O)(=O)c3ccccc3)N1CC2", "IC50": "> 50 µM (inactive)"}
{"smiles": "CS(=O)(=O)c1nc(-c2ccccc2)cc(C(F)(F)F)n1", "IC50": "2.13 µM"}
{"smiles": "COc1ccc(-c2cc(C(F)(F)F)nc(S(C)(=O)=O)n2)cc1OC", "IC50": "2.91 µM"}
{"smiles": "N#CCCS(=O)(=O)c1nnnn1-c1ccccc1", "IC50": "2.79 µM"}
{"smiles": "Cn1c(-c2c(N)n(C3CCCC3)c3nc4ccccc4nc23)nc2ccccc21", "IC50": "3.64 µM"}
{"smiles": "O=C1C2C3C=CC(CO)(O3)C2C(=O)N1c1ccc(-c2ccccc2)cc1", "note": "(configuration not stated)", "IC50": "4.91 µM"}
{"smiles": "CC(=O)Oc1ccc(N2C(=O)C3C(C2=O)C2(C)C=CC3(C)O2)cc1", "note": "(configuration not stated)", "IC50": "2.62 µM"}
{"smiles": "CN(C)c1nc(OCCNC(=O)COc2ccc(Cl)cc2Cl)nc(N2CCCCC2)n1", "IC50": "> 50 µM (inactive)"}
{"smiles": "COc1cc(NS(=O)(=O)c2ccc(C)cc2)c2ncccc2c1", "IC50": "3.75 µM"}
{"smiles": "COc1ccc(-n2nnnc2S(=O)(=O)CC(=O)N2CCCCC2)cc1", "IC50": "2.61 µM"}
{"smiles": "Clc1ccc(-n2nnnc2Sc2ncnc3sccc23)cc1", "IC50": "3.5 µM"}
{"smiles": "CC(C)=CCC(C)(C)CNC(=O)NC1CCCCC1", "IC50": "> 50 µM (inactive)"}
{"smiles": "COc1cc2c(cc1OC)-c1cc(N3CCCc4ccccc43)nc(=O)n1CC2", "IC50": "> 50 µM (inactive)"}
{"smiles": "CCCOCCOC(=O)c1[nH]c2c(c1C)C(=O)CC(c1cc(OC)ccc1OC)C2", "note": "(configuration not stated)", "IC50": "> 50 µM (inactive)"}
{"smiles": "COc1ccc(N2C(=O)CC(NCc3ccncc3)C2=O)cc1", "note": "(configuration not stated)", "IC50": "> 50 µM (inactive)"}
{"smiles": "COC(=O)/C(=C1/Oc2cc(C)oc(=O)c2S1)C(F)(F)F", "IC50": "1.86 µM"}
{"smiles": "CCCOc1ccc2nc(NC(=O)OC)[nH]c2c1", "IC50": "> 50 µM (inactive)"}
{"smiles": "COc1ccccc1-c1nnc2n1N=C(c1ccc(O)c(O)c1)CS2", "IC50": "> 50 µM (inactive)"}
{"smiles": "COc1cccc(N2CCN(c3ncnc4c3cnn4-c3ccc(C)cc3C)CC2)c1", "IC50": "6.99 µM"}
{"smiles": "COc1ccc(C2N(c3ccc(F)cc3)C(=O)C3CCCN32)cc1", "note": "(configuration not stated)", "IC50": "> 38.2 µM (inactive)"}
{"smiles": "CCn1nc(-c2cccs2)nc2c(=O)n(C)c(=O)nc1-2", "IC50": "0.629 µM"}
{"smiles": "COc1cccc(N2CCN(c3ncnc4c3[nH]c3ccccc34)CC2C)c1", "note": "(configuration not stated)", "IC50": "8.24 µM"}
{"smiles": "CCCc1nnc2n1N=C(c1ccc(OC)c(OC)c1)CS2", "IC50": "> 50 µM (inactive)"}
{"smiles": "CCN(CC)c1ccc2c(Cl)c(Br)c(=O)oc2c1", "IC50": "0.999 µM"}
{"smiles": "N#C/C(=C/c1ccc(N2CCCCCC2)o1)c1ccc(F)cc1", "IC50": "5.2 µM"}
{"smiles": "Cc1ccc(-n2nc3c([n+]2[O-])CCc2c-3no[n+]2[O-])cc1", "IC50": "3.9 µM"}
{"smiles": "O=C(Nc1ccc(N2CCOCC2)cc1)Nc1ccc2nc(-c3ccco3)c(-c3ccco3)nc2c1", "IC50": "> 17.2 µM (inactive)"}
{"smiles": "CSc1ccccc1N=CC1=C(O)CC(C)(C)CC1=O", "IC50": "2.35 µM"}
{"smiles": "CCn1nc(-c2ccccc2)nc2c(=O)n(C)c(=O)nc1-2", "IC50": "> 50 µM (inactive)"}
{"smiles": "O=C(Nc1ccc(-c2nc3ncccc3o2)cc1)c1ccc(Br)o1", "IC50": "> 50 µM (inactive)"}
{"smiles": "CC(=O)Nc1cc(OC(C)=O)c2nonc2c1OC(C)=O", "IC50": "2.1 µM"}
{"smiles": "CS(=O)(=O)c1nc(-c2ccco2)cc(C(F)(F)F)n1", "IC50": "2.26 µM"}
{"smiles": "Cc1ccc(S(=O)(=O)Nc2cccc3ncccc23)s1", "IC50": "2.91 µM"}
{"smiles": "COCCOC(=O)c1[nH]c2c(c1C)C(=O)CC(c1ccccc1)C2", "note": "(configuration not stated)", "IC50": "> 50 µM (inactive)"}
{"smiles": "CCOc1cccc(-c2nnc3n2N=C(c2cc(OC)ccc2OC)CS3)c1", "IC50": "> 32.7 µM (inactive)"}
{"smiles": "O=S1(=O)C=C(Sc2nnc(-c3ccccc3)o2)c2ccccc21", "IC50": "1.04 µM"}
{"smiles": "COc1cccc(N2CCN(c3ncnc4c3[nH]c3ccc(F)cc34)CC2C)c1", "note": "(configuration not stated)", "IC50": "1.82 µM"}
